{"source": "patent US9745631B2", "about": "“Methods for diagnosing and treating oncogenic kras-associated cancer” (Dana-Farber Cancer Institute, Inc., priority 2011, dated 2017)", "type_in_all_cases": "cell-based, mouse", "key": {"[1]": {"tested_on": "iKras p53L/+ cells", "experiment": "QPCR of metabolism genes in inhibitor-treated iKras p53L/+ cells", "settings": "AZD8330 50 nM, 18 hr, FIG. 41", "description": "FIG. 41 is a bar graph showing the relative mRNA expression of the indicated genes in iKras p53L/+ cells treated with MEK inhibitor, AZD8330 (50 nM), BKM120 (150 nM), or Rapamycin (20 nM) for 18 hours. Error bars represent SD of the mean; *p<0.05; **p<0.01.\nTo further dissect the downstream mechanism of Kras^G12D-mediated metabolic reprogramming, specific pharmacological inhibitors were used to examine the impact of effector pathways on tumor metabolism. iKras p53L/+ cells were treated with AZD8330 (50 nM), BKM120 (150 nM), or Rapamycin (20 nM) for 18 hr. In parallel, cells were cultured in the presence or absence of doxy for 24 hr to serve as controls and relative mRNA levels of indicated metabolism genes were measured by QPCR. Some cell lysates were blotted for phospho-Akt, phospho-Erk, phospho-S6, and Myc. […] To gain further insight into the Kras^G12D-mediated transcriptional regulation that facilitates metabolic reprogramming, promoter analysis was performed on differentially expressed genes upon Kras^G12D inactivation."}, "[2]": {"tested_on": "iKras p53L/+ cells", "experiment": "Western blot for phospho-Akt, phospho-Erk, phospho-S6 and Myc in inhibitor-treated cells", "settings": "MEK inhibitor treatment (AZD8330 50 nM, 18 hr)", "description": "FIG. 42 is a photograph of a Western blot showing expression of phospho-Akt, phospho-Erk, phospho-S6, Myc, and Actin (loading control) in iKras p53L/+ cells treated with AZD8330 (50 nM), BKM120 (150 nM), or Rapamycin (20 nM) for 18 hours. As control, cells were cultured in the presence or absence of doxycycline for 24 hours.\nTissues were fixed in 10% formalin overnight and embedded in paraffin. Immunohistochemical analysis was performed as described (see, Aguirre et al. (2003) Genes Dev 17:3112-3126). The visualization of primary antibodies was performed with horseradish peroxidase system (Vectastain ABC kit, Vector Labs, Inc., Burlingame, Calif.). Images were captured using a Leica DM1400B microsystem and Leica FW4000 version 1.2.1. […]\nTo further dissect the downstream mechanism of Kras^G12D-mediated metabolic reprogramming, specific pharmacological inhibitors were used to examine the impact of effector pathways on tumor metabolism. iKras p53L/+ cells were treated with AZD8330 (50 nM), BKM120 (150 nM), or Rapamycin (20 nM) for 18 hr. In parallel, cells were cultured in the presence or absence of doxy for 24 hr to serve as controls and relative mRNA levels of indicated metabolism genes were measured by QPCR. […]"}, "[3]": {"tested_on": "iKras p53L/+ cells", "experiment": "Steady-state metabolite levels by targeted LC-MS/MS in inhibitor-treated cells", "settings": "18 hr", "description": "FIG. 43 is a bar graph showing the relative steady-state levels of the indicated metabolites measured by targeted LC-MS/MS, in iKras p53L/+ cells treated with AZD8330 (50 nM), BKM120 (150 nM), or Rapamycin (20 nM) for 18 hours. As control, cells were cultured in the presence or absence of doxycycline for 24 hours. Error bars represent SD of the mean. *p<0.05; **p<0.01.\nTwo independent iKras p53^L/+ tumor lines and one LSL-Kras p53^L/+ line were maintained in basal media in the presence or absence of doxycycline for 24 h. Fresh media was added 2 hours before the experiment. For metabolite collection, media from technical triplicates (in 10 cm dishes at ˜70% confluence) was fully aspirated and 4 mL of 80% (v/v) methanol was added at dry ice temperatures. Cells and the metabolite-containing supernatants were collected into conical tubes. Insoluble material in lysates was centrifuged at 2,000×g for 15 min, and the resulting supernatant was evaporated using a refrigerated speed vac. […] Ten microliters were injected and analyzed using a 5500 QTRAP hybrid triple quadrupole mass spectrometer (AB/SCIEX) coupled to a Prominence UFLC HPLC system (Shimadzu) via selected reaction monitoring (SRM) of a total of 254 endogenous water soluble metabolites for steady-state analyses of samples. […] Approximately 9-12 data points were acquired per detected metabolite. […]"}, "[4]": {"tested_on": "iKras p53L/+ cells", "experiment": "GSH and GSSG levels normalized to cell number", "settings": "0.5 mM BSO for 24 hours, FIG. 33", "description": "FIG. 33 is a bar graph quantifying the GSH and GSSG levels normalized to cell number in iKras p53L/+ cells or constitutive LSL-KrasG12D p53L/+ control cells (LSL-Kras) maintained in the presence or absence of doxycycline (Dox+/−) or treated with 0.5 mM BSO for 24 hours; statistical significance is indicated as follows: *: p<0.05.\nDoxycycline (Research Product International), BSO (Sigma), Ras activation assay kit (Millipore), G6PD activity assay kit (BioVision), GSH/GSSG-Glo™ assay kit (Promega, Madison, Wis.).\nTo explore this possibility in the context of Kras^G12D-driven PDAC, ^14C1- or ^14C6-labeled glucose was used to measure the production of CO2 from the oxidative PPP (^14C1—CO2) relative to that generated from the glycolysis-TCA cycle route (^14C6—CO2). Consistent with data showing that Kras^G12D de-induction exerts a minimal effect on TCA cycle intermediates (FIG. 18), no obvious change in the release of ^14C6—CO2 was observed upon doxycycline withdrawal (FIG. 32). More importantly, no significant decrease in the release of ^14C1—CO2 was detected (FIG. 32), indicating Kras^G12D extinction was not associated with decreased flux through the oxidative arm of the PPP."}, "[5]": {"tested_on": "iKras p53L/+ PDAC cells", "experiment": "Clonogenic assay", "settings": "shRNA against FASN, FIG. 49", "description": "FIG. 38 is a bar graph quantifying the clonogenic activity, expressed as colony number, in iKras p53L/+ cells maintained under high (11 mM) or low (1 mM) glucose, determined for cells infected with shRNA against GFP, RPIA, RPE, or RPIA+RPE; statistical significance is indicated as follows: *: p<0.05; **: p<0.01.\nFIG. 49 is a bar graph quantifying the colony numbers in a clonogenic assay for iKras p53L/+ PDAC cells infected with shRNA against GFP or FASN.\n400 cells were seeded into each well of 6-well plate in duplicate and colonies were stained 7-10 days later with 0.2% crystal violet in 80% methanol."}, "[6]": {"tested_on": "FASN", "experiment": "Relative expression of FASN after shRNA against FASN", "settings": "iKras p53L/+ PDAC, FIG. 48", "description": "FIG. 48 is a bar graph quantifying the relative expression level of FASN in iKras p53L/+ PDAC infected with shRNA against GFP or FASN.\n(§1) Lentiviral shRNA clones targeting Gfpt1, RPIA, RPE, MYC, and FASN and nontargeting control construct shGFP were obtained from the RNAi Consortium at the Dana-Farber/Broad Institute. The clone IDs and nucleic acid sequences for the shRNAs are:\nAs shown in Example 4, above, extinction of iKras led to decreased expression of FASN. Thus, it was next determined whether FASN plays a role in tumorigenesis in PDAC tumor model. iKras p53L/+ PDAC were treated with shRNA against FASN or GFP (control). […] Thus, FASN was determined to play a role in tumorigenic activity of iKras p53L/+ PDAC cells."}, "[7]": {"tested_on": "Gfpt1", "experiment": "Western blot for O-GlcNAc after shRNA knockdown of Gfpt1", "settings": "shRNA against Gfpt1, FIG. 25", "description": "FIG. 25 is a photograph of a Western blot analysis for O-GlcNAc and Gfpt1 levels in KrasG12D p53L/+ cells infected with shRNA against GFP or Gfpt1. For control samples, MEFs were cultured in the presence or absence of glucose (Glc+, Glc−) for 24 hours. Actin was used as a loading control.\nTissues were fixed in 10% formalin overnight and embedded in paraffin. Immunohistochemical analysis was performed as described (see, Aguirre et al. (2003) Genes Dev 17:3112-3126). The visualization of primary antibodies was performed with horseradish peroxidase system (Vectastain ABC kit, Vector Labs, Inc., Burlingame, Calif.). Images were captured using a Leica DM1400B microsystem and Leica FW4000 version 1.2.1. The primary antibodies used for immunohistochemistry or Western blot were: SMA (NB600-531, Novus Biologicals®, Littleton, Colo.), BrdU (ab1293, Abcam, Cambridge, Mass.), cleaved-Caspase3 (9664, Cell Signaling, Danvers, Mass.), phosphor-Akt (4060, Cell Signaling), phospho-Erk (4376, Cell Signaling), phospho-S6 (4858, Cell Signaling), Actin (sc-1615, Santa Cruz, Santa Cruz, Calif.), Ras (05-516, Millipore, Billerica, Mass.), O-GlcNAc (ab2739, Abcam). Gfpt1 antibody was a kind gift from Immuno-Biological Laboratories Co., Gunma, Japan.\nas §1\nLentiviruses were produced in 293T cells with packing mix (ViraPower Lentiviral Expression System, Invitrogen, Carlsbad, Calif.) as per manufacturer's instruction. 293T cell supernatant containing the shRNA lentivirus was collected, filtered through 0.45 μm filter, and added to target iKras cells in the presence of 8 μg/ml polybrene.\nTo further substantiate the essentiality of Kras^G12D-mediated control of protein glycosylation, the impact of shRNA-mediated knockdown of Gfpt1 was assessed. […]"}}}
{"molecule": "Cc1cc(C(=O)NOCCO)c(Nc2ccc(I)cc2F)n(C)c1=O", "note": "[AZD8330]", "values": [{"measurement": "expression of glycolytic genes (Glut1, Hk1, Eno1, Ldha), HBP gene (Gfpt1) and nonoxidative PPP gene (Rpia), relative mRNA", "setting": "[1]", "result": "significantly decreased"}, {"measurement": "Myc protein level", "setting": "[2]", "result": "decreased"}, {"measurement": "metabolite changes in the glycolysis, HBP and nonoxidative PPP pathways", "setting": "[3]; AZD8330 50 nM, FIG. 43", "result": "recapitulated the Kras^G12D inactivation induced metabolite changes"}]}
{"molecule": "Nc1cc(C(F)(F)F)c(-c2cc(N3CCOCC3)nc(N3CCOCC3)n2)cn1", "note": "[BKM120]", "values": [{"measurement": "impact on iKras-directed tumor metabolism", "setting": "[3]; BKM120 150 nM, FIGS. 41, 42 and 43", "result": "did not exhibit a significant impact"}]}
{"molecule": "CCCCS(=N)(=O)CCC(N)C(=O)O", "note": "(stereo not shown) [BSO, buthionine sulfoximine]", "values": [{"measurement": "ratio of GSH/GSSG", "setting": "[4]", "result": "dramatically reduced"}]}
{"molecule": "FASN shRNA1: lentiviral shRNA clone targeting FASN, GCTGGTCGTTTCTCCATTAAA (SEQ ID NO: 172)", "values": [{"measurement": "colony formation", "setting": "[5]", "result": "marked decrease"}, {"measurement": "FASN expression", "setting": "[6]", "result": "marked decrease"}]}
{"molecule": "shRNA4: lentiviral shRNA clone targeting FASN, CGTCTATACCACTGCTTACTA (SEQ ID NO: 175)", "values": [{"measurement": "colony formation", "setting": "[5]", "result": "marked decrease"}, {"measurement": "FASN expression", "setting": "[6]", "result": "marked decrease"}]}
{"molecule": "shRNA #1: lentiviral shRNA clone targeting Gfpt1, CCTGAAACTTAAGACAGTTAA (SEQ ID NO: 165)", "values": [{"measurement": "overall O-linked glycosylation (O-GlcNAc)", "setting": "[7]", "result": "reduced"}]}
{"molecule": "shRNA #2: lentiviral shRNA clone targeting Gfpt1, CGTCTCTCTATCCACCGAATT (SEQ ID NO: 166)", "values": [{"measurement": "overall O-linked glycosylation (O-GlcNAc)", "setting": "[7]", "result": "failed to affect glycosylation"}]}
{"molecule": "shRNA #3: lentiviral shRNA clone targeting Gfpt1, CAGGGCATTCTCAGTGTGATT (SEQ ID NO: 167)", "values": [{"measurement": "overall O-linked glycosylation (O-GlcNAc)", "setting": "[7]", "result": "reduced"}]}
{"molecule": "shRNAS: lentiviral shRNA clone targeting FASN, GCTGCGGAAACTTCAGGAAAT (SEQ ID NO: 176)", "values": [{"measurement": "colony formation", "setting": "[5]", "result": "to some extent"}]}
